One assay has as its target T1, PKC β-2 (Homo sapiens, UniProt P05771).
T1 construct: purchased BIOMOL SE-143; host or cells: insect cells
In words: Kinase selectivity assay PKC β-2. The assay is classed as biochemical. On the procedure:
Assays to test compound inhibition of other kinases were preformed using methods that measure the amount of phosphorylation of a biotinylated peptide substrate. Biotinylated peptide substrates were selected from the literature as appropriate for the enzyme being evaluated. The general procedure used to assay for kinase activity is as follows: a kinase reaction mix was prepared in 50 mM Tris-HCl pH=8, 10 mM MgCl2, 0.1 mM Na3VO4, 1 mM DTT, 10 μM ATP, 0.25–1 μM biotinylated peptide substrate, 0.2–0.8 μCuries per well ^33P-γ-ATP (2000–3000 Ci/mmol). Assay conditions vary slightly for each protein kinase, for example, insulin receptor kinase requires 10 mM MnCl2 for activity and Calmodulin-dependent protein kinase requires calmodulin and 2 mM CaCl2. The reaction mixture was dispensed into the wells of a streptavidin coated Flashplate and 1 μL test compound in 100% DMSO was added to a 100 μL reaction volume resulting in a final concentration of 1% DMSO in the reaction. Enzyme was diluted in 50 mM Tris-HCl pH=8.0, 0.1% BSA and added to each well. The reaction was incubated for one hour at 30° C. in the presence of a test compound. […] The plate was read on a scintillation counter to determine ^33P-γ-ATP incorporated into the immobilized peptide substrate. […] A maximum and minimum signal for the assay was determined on each plate. […]

Assay [1] has as its system PC-3 prostate adenocarcinoma. Briefly: Inhibition of cell proliferation, 14C-thymidine incorporation, PC-3. It counts as cell-based. The note with it: Homo sapiens. On the procedure:
The ability of a test compound to inhibit the proliferation of cell growth was determined by measuring incorporation of ^14C-labelled thymidine into newly synthesized DNA within the cells. This method was used on cell lines derived from carcinomas originating from several tissues such as HeLa cervical adenocarcinoma (American Type Culture Collection (ATCC), Virginia, Cat. #CCL-2), HCT-116 colon carcinoma (CCL-247), MDA-MB-231 (Xenogen Corp.), PC-3 prostate adenocarcinoma (ATCC CRL-1435) and A375 malignant melanoma (ATCC CRL-1619).
Using this method, the effect of a compound on cell growth of cells with many different phenotypes can be determined. Cells were trypsinized and counted and 3000–8000 cells were added to each well of a 96-well CytoStar tissue culture treated scintillating microplate (Amersham #RPNQ0160) in complete medium in a volume of 100 μl. Cells were incubated for 24 hours in complete medium at 37° C. in an atmosphere containing 5% CO2. 1 μL of test compound in 100% DMSO was then added to the wells of the plate. DMSO only was added to control wells. Cells were incubated for 24 more hours in complete medium at 37° C. in an atmosphere containing 5% CO2. […] The degree of methyl ^14C-thymidine incorporation was quantified on a Packard Top Count.
For orientation: Incorporation of labelled thymidine or its analogues reports DNA synthesis.

T1 sequence (P05771 1-673 isoform P05771-2): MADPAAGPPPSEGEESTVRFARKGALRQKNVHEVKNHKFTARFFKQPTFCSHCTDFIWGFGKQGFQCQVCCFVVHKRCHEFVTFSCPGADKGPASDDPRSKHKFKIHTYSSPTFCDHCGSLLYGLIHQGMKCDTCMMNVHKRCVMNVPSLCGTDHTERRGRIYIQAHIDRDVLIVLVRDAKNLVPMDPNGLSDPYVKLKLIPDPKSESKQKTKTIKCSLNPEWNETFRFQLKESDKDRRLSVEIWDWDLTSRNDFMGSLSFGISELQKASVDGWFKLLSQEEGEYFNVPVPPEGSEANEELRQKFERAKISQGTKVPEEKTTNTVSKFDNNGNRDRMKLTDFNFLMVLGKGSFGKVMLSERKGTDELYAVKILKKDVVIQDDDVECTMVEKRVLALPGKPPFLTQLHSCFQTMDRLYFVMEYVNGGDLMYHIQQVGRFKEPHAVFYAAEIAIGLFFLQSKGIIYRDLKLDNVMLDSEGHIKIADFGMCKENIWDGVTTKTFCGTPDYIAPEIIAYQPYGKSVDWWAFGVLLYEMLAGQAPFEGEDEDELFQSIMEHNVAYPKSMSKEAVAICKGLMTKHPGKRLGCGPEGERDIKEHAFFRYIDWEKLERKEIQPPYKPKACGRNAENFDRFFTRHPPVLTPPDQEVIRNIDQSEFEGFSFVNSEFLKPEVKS

Usually IC50 stands for the concentration that inhibits the measured activity by half. Low readings indicate inhibition by little substance, high ones a need for much substance. On to `OCCCNc1cncc(-c2ncnc(Nc3cccc(Cl)c3)n2)c1` [Compound 1, 3-((5-(4-((3-chlorophenyl)amino)-1,3,5-triazin-2-yl)-3-pyridinyl)amino)-1-propanol], for which the half-maximal inhibitory concentration (IC50) is above 100000 nM against PKC β-2 and 259 nM in assay [1].

These data come from patent US7205298B2, “Substituted triazine kinase inhibitors” (Janssen Pharmaceutica N.V., priority 2002, dated 2007).
